Literature values in patent US20250064843A1, “METHOD AND MEDICAMENT FOR TREATING AMYOTROPHIC LATERAL SCLEROSIS” (4B TECHNOLOGIES (BEIJING) CO., LIMITED, priority 2021, published 2025).
pIC50: −log10 of the molar value. ≈ marks a conversion by molar mass, not a printed value. Values belong to the compound of their own block, whether it stands above or below them.

Tests used:
NR3C1 = target: T1, NR3C1 (Homo sapiens, UniProt P04150); conditions: for NR3C1; retrieved from Selleckchem.com
T1 sequence (P04150 1-777): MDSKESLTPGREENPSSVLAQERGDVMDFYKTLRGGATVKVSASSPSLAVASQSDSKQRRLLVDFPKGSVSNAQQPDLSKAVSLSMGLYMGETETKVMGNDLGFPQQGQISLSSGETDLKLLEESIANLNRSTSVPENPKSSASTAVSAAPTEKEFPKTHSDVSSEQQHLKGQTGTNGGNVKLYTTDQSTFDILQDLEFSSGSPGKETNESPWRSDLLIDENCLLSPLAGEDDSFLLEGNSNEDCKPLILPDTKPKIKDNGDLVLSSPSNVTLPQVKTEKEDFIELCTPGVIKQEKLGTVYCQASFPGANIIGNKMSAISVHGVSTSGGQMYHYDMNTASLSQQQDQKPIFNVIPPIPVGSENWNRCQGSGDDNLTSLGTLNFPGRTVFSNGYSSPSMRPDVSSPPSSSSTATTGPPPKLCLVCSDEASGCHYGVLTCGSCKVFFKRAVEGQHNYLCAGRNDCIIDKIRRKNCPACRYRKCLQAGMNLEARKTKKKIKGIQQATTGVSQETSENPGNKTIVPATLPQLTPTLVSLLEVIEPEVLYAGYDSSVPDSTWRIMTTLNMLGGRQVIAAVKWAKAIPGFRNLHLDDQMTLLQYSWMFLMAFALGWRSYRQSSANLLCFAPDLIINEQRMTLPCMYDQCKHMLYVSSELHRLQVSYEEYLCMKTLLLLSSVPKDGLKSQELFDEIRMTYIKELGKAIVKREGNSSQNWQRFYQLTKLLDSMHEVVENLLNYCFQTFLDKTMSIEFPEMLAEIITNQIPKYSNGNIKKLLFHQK

mouse leukemia cells = conditions: on mouse leukemia cells
leukemia cells = conditions: on leukemia cells at 24 h
ALS-mimic mouse model = conditions: NR3C1 antagonist
KCNC1 = target: T2, KCNC1 (Homo sapiens, UniProt P48547); conditions: for KCNC1
T2 sequence (P48547 1-511): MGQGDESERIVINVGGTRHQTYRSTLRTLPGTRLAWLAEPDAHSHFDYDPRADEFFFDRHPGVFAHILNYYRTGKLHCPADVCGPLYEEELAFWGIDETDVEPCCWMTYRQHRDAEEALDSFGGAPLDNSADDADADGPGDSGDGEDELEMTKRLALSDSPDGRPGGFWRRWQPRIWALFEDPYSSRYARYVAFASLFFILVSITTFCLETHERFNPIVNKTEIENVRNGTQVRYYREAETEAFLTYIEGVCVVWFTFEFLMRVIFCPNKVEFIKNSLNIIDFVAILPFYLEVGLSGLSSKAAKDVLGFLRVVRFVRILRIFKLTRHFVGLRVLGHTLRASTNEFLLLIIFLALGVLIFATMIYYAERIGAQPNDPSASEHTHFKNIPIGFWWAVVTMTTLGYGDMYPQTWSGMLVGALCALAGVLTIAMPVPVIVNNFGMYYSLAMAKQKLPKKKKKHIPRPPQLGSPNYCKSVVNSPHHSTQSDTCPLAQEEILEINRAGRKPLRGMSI

ALS patients = conditions: NR3C1 agonists
proliferation = conditions: for proliferation
human neutrophils = conditions: in human neutrophils
IGF1R = IGF1R (Homo sapiens, UniProt P08069); conditions: for IGF1R
Sequence of IGF1R (P08069 31-1367): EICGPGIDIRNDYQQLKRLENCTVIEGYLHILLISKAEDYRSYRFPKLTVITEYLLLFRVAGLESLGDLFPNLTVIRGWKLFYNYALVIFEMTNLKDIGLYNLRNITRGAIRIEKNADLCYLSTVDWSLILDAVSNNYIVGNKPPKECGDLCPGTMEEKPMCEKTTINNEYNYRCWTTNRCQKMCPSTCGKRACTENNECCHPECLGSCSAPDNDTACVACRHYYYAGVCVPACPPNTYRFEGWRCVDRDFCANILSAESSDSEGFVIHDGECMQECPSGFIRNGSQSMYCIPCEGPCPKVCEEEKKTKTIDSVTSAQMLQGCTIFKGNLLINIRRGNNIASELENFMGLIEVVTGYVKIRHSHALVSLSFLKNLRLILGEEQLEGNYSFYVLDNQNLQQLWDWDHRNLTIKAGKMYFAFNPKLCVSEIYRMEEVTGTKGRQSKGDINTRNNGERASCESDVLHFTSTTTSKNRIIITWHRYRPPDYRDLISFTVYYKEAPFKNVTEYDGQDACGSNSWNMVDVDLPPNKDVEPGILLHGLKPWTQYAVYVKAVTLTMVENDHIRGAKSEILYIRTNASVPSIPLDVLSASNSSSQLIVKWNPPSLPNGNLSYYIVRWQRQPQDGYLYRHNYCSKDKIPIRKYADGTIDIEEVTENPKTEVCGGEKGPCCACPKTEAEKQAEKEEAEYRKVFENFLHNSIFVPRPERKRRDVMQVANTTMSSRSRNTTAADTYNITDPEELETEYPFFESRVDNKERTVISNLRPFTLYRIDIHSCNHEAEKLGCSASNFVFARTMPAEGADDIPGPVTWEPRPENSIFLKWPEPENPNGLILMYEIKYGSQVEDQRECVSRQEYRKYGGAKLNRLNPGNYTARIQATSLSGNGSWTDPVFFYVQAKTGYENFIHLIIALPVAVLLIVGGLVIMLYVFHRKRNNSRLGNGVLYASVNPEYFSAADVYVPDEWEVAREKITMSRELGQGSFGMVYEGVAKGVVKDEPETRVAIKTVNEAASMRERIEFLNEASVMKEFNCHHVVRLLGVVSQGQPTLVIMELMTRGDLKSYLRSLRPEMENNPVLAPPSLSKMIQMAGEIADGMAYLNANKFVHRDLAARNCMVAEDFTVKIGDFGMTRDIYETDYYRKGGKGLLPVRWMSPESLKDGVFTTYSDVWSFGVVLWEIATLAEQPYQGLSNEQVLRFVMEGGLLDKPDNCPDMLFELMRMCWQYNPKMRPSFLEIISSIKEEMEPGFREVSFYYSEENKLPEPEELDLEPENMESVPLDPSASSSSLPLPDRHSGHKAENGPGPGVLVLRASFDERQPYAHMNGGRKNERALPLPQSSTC

- pIC50 (NR3C1): 7.75
Structure (SMILES): CC#C[C@]1(O)CCC2C3CCC4=CC(=O)CCC4=C3[C@@H](c3ccc4c(c3)OCO4)C[C@@]21C (stereo partly drawn) [ORG-34517]

- IC50 (mouse leukemia cells): 0.019 µg/mL (≈ 0.0778 µM)
Structure (SMILES): Nc1ncn([C@@H]2O[C@H](CO)[C@@H](O)[C@H]2O)c(=O)n1 [Azacitidine, 5-azacytidine]

Structure (SMILES): Nc1ncn([C@H]2C[C@H](O)[C@@H](CO)O2)c(=O)n1 [Decitabine, 5-aza-2′-deoxycytidine]
- pIC50 (leukemia cells): 7.00

Structure (SMILES): O=C(c1ccccn1)[C@]12Cc3cnn(-c4ccc(F)cc4)c3C=C1CCN(S(=O)(=O)c1ccc(C(F)(F)F)cc1)C2 [CORT113176]
- effect on pro-inflammatory factors (ALS-mimic mouse model): reducing the expression and origin of pro-inflammatory factors

Structure (SMILES): Nc1ccncc1 [Dalfampridine, 4-aminopyridine]
- pIC50 (KCNC1): 4.54

Structure (SMILES): C[C@]12C=CC(=O)C=C1CC[C@@H]1[C@@H]2C(=O)C[C@@]2(C)[C@H]1CC[C@]2(O)C(=O)CO [prednisone]
- response to immunosuppression therapy (ALS patients): none of the patients reached the pre-defined responder criteria

Structure (SMILES): COc1cc(C)c(/C=C/C(C)=C/C=C/C(C)=C/C(=O)O)c(C)c1C [Acitretin, (2E,4E,6E,8E)-9-(4-methoxy-2,3,6-trimethylphenyl)-3,7-dimethylnona-2,4,6,8-tetraenoic acid]
- pIC50 (proliferation): 5.18

- IC50 (human neutrophils): 13.2 mg/L in
Structure (SMILES): CC(CCc1ccccc1)NCC(O)c1ccc(O)c(C(N)=O)c1 (stereo not drawn) [Labetalol]

Structure (SMILES): COc1cc([C@@H]2c3cc4c(cc3[C@H](O)[C@H]3COC(=O)[C@@H]23)OCO4)cc(OC)c1OC [AXL-1717, picropodophyllin]
- pIC50 (IGF1R): 9.00
